# Results from patent US12662489B2 (Sitryx Therapeutics Limited, priority 2023, dated 2026).
# Key:
# [1] = biological target: T1, MTHFD1 recombinant human enzyme (Homo sapiens, UniProt P11586); test: MTHFD1 inhibition assay (NAD(P)H-Glo luminescence); conditions: MTHFD1 IC50, recombinant human enzyme 200 nM, NADP, band
# T1 sequence (P11586 2-291 limits assumed): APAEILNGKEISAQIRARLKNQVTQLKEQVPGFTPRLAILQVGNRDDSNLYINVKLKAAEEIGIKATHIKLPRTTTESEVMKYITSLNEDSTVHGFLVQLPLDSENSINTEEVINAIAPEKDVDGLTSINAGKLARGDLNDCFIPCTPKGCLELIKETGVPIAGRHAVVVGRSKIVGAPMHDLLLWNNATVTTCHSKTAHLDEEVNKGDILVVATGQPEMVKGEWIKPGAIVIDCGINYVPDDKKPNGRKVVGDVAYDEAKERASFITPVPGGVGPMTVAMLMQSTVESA
# [2] = biological target: T2, MTHFD2 recombinant human enzyme (Homo sapiens, UniProt P13995); test: MTHFD2 inhibition assay (NAD(P)H-Glo luminescence)
# T2 sequence (P13995 36-350): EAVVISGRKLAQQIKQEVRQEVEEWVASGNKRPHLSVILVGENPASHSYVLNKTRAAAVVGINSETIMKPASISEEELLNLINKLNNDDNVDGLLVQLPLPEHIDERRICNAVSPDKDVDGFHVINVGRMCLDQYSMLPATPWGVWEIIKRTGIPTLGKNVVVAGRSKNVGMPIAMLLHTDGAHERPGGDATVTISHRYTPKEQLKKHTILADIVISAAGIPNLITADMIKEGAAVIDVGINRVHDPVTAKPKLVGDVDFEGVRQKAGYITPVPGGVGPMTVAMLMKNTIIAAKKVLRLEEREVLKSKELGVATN
# [3] = selectivity of MTHFD2 inhibition over MTHFD1, band
Structure (SMILES),IC50 [1] [nM],IC50 [2] [nM],"MTHFD1/MTHFD2 IC50 ratio [2, 3]","MTHFD1/MTHFD2 IC50 ratio ([2]; mean value after increased number of repeats, band)"
"COC[C@H]1CN(c2ccc3c4c(c(=O)oc3c2C)CN(C(=O)c2cc(OC3CCCC3)c(C(=O)NS(=O)(=O)N(C)C)c(C(F)(F)F)c2)CC4)CCN1C [Example 117, (R)-2-(cyclopentyloxy)-N-(N,N-dimethylsulfamoyl)-4-(8-(3-(methoxymethyl)-4-methylpiperazin-1-yl)-7-methyl-5-oxo-1,3,4,5-tetrahydro-2H-chromeno[3,4-c]pyridine-3-carbonyl)-6-(trifluoromethyl)benzamide]",1000 to 5000,100 to 1000,H (>9.0 to 30),–
"COC[C@H]1CN(c2cc(C)c3c4c(c(=O)oc3c2C)CN(C(=O)c2ccc(C(=O)NS(=O)(=O)N(C)C(C)C)c(O[C@@H]3C[C@@H]5C[C@@H]5C3)c2F)CC4)CCN1C [Example 36, 2-(((1R,3r,5S)-bicyclo[3.1.0]hexan-3-yl)oxy)-3-fluoro-N-(N-isopropyl-N-methylsulfamoyl)-4-(8-((R)-3-(methoxymethyl)-4-methylpiperazin-1-yl)-7,10-dimethyl-5-oxo-1,3,4,5-tetrahydro-2H-chromeno[3,4-c]pyridine-3-carbonyl)benzamide]",1 to 10,1 to 10,F (<3),–
"COC[C@H]1CN(c2cc(C)c3c4c(c(=O)oc3c2C)CN(C(=O)c2ccc(C(=O)NS(=O)(=O)C3(C)CC3)c(OC3CCC3)c2C)CC4)CCN1C [Example 180, (R)-2-cyclobutoxy-4-(8-(3-(methoxymethyl)-4-methylpiperazin-1-yl)-7,10-dimethyl-5-oxo-1,3,4,5-tetrahydro-2H-chromeno[3,4-c]pyridine-3-carbonyl)-3-methyl-N-((1-methylcyclopropyl)sulfonyl)benzamide]",100 to 1000,10 to 100,G (^ 3 to 9.0),–
CCOc1c(C(=O)NS(=O)(=O)N2CC3CCC(C3)C2)ccc(C(=O)N2CCc3c(c(=O)oc4c(C)c(N5CCN(C)[C@@H](COC)C5)cc(C)c34)C2)c1F [Example 235],100 to 1000,10 to 100,G (^ 3 to 9.0),–
"COC[C@H]1CN(c2cc(C)c3c4c(c(=O)oc3c2C)CN(C(=O)c2ccc(C(=O)NS(=O)(=O)N3CCCC3)c(N3C5CCC3CC5)c2F)CC4)CCN1C [Example 97, (R)-2-(7-azabicyclo[2.2.1]heptan-7-yl)-3-fluoro-4-(8-(3-(methoxymethyl)-4-methylpiperazin-1-yl)-7,10-dimethyl-5-oxo-1,3,4,5-tetrahydro-2H-chromeno[3,4-c]pyridine-3-carbonyl)-N-(pyrrolidin-1-ylsulfonyl)benzamide]",10 to 100,10 to 100,F (<3),–
"COC[C@H]1CN(c2cc(C)c3c4c(c(=O)oc3c2C)CN(C(=O)c2ccc(C(=O)NS(=O)(=O)N3CCCC3)c(N3CCC[C@H]3C)c2)CC4)CCN1C [Example 124, 4-(8-((R)-3-(methoxymethyl)-4-methylpiperazin-1-yl)-7,10-dimethyl-5-oxo-1,3,4,5-tetrahydro-2H-chromeno[3,4-c]pyridine-3-carbonyl)-2-((R)-2-methylpyrrolidin-1-yl)-N-(pyrrolidin-1-ylsulfonyl)benzamide]",100 to 1000,100 to 1000,F (<3),–
"COC[C@H]1CN(c2ccc3c4c(c(=O)oc3c2Cl)CN(C(=O)c2ccc(C(=O)NS(=O)(=O)C3(C)CC3)c(OC3CCC3)c2)CC4)CCN1C [Example 10, (R)-4-(7-chloro-8-(3-(methoxymethyl)-4-methylpiperazin-1-yl)-5-oxo-1,3,4,5-tetrahydro-2H-chromeno[3,4-c]pyridine-3-carbonyl)-2-cyclobutoxy-N-((1-methylcyclopropyl)sulfonyl)benzamide]",10 to 100,10 to 100,F (<3),–

# Continued, values first:
IC50 [1] [nM],IC50 [2] [nM],"MTHFD1/MTHFD2 IC50 ratio [2, 3]","MTHFD1/MTHFD2 IC50 ratio ([2]; mean value after increased number of repeats, band)",Structure (SMILES)
10 to 100,1 to 10,F (<3),–,"COC[C@H]1CN(c2cc(C)c3c4c(c(=O)oc3c2C)CN(C(=O)c2ccc(C(=O)NS(=O)(=O)N3CCCC3)c(OCCC(F)(F)F)c2F)CC4)CCN1C [Example 222, (R)-3-fluoro-4-(8-(3-(methoxymethyl)-4-methylpiperazin-1-yl)-7,10-dimethyl-5-oxo-1,3,4,5-tetrahydro-2H-chromeno[3,4-c]pyridine-3-carbonyl)-N-(pyrrolidin-1-ylsulfonyl)-2-(3,3,3-trifluoropropoxy)benzamide]"
1 to 10,10 to 100,F (<3),–,"COC[C@H]1CN(c2cc(C)c3c4c(c(=O)oc3c2C)CN(C(=O)c2ccc(C(=O)NS(=O)(=O)N(C)C)c(N3CC5CCC3C5)c2)CC4)CCN1C (stereo partly drawn) [Example 116, 2-(2-azabicyclo[2.2.1]heptan-2-yl)-N-(N,N-dimethylsulfamoyl)-4-(8-((R)-3-(methoxymethyl)-4-methylpiperazin-1-yl)-7,10-dimethyl-5-oxo-1,3,4,5-tetrahydro-2H-chromeno[3,4-c]pyridine-3-carbonyl)benzamide]"
1 to 10,1 to 10,F (<3),–,"COC[C@H]1CN(c2cc(C)c3c4c(c(=O)oc3c2C)CN(C(=O)c2ccc(C(=O)NS(=O)(=O)C3(C)CC3)c(O[C@H]3C[C@@H]5C[C@@H]5C3)c2F)CC4)CCN1C [Example 68, 2-(((1R,3s,5S)-bicyclo[3.1.0]hexan-3-yl)oxy)-3-fluoro-4-(8-((R)-3-(methoxymethyl)-4-methylpiperazin-1-yl)-7,10-dimethyl-5-oxo-1,3,4,5-tetrahydro-2H-chromeno[3,4-c]pyridine-3-carbonyl)-N-((1-methylcyclopropyl)sulfonyl)benzamide]"
100 to 1000,10 to 100,J (>30),–,"COC[C@H]1CN(c2cc(Cl)c3c4c(c(=O)oc3c2C)CN(C(=O)c2cc(N(C)C)c(C(=O)NS(=O)(=O)N3CCC(C(F)(F)F)CC3)cc2F)CC4)CCN1C [Example 293, (R)-4-(10-chloro-8-(3-(methoxymethyl)-4-methylpiperazin-1-yl)-7-methyl-5-oxo-1,3,4,5-tetrahydro-2H-chromeno[3,4-c]pyridine-3-carbonyl)-2-(dimethylamino)-5-fluoro-N-((4-(trifluoromethyl)piperidin-1-yl)sulfonyl)benzamide]"
> 5000,100 to 1000,H (>9.0 to 30),–,"COC[C@H]1CN(c2ccc3c4c(c(=O)oc3c2C)CN(C(=O)c2cc(N3CC5CC5C3)c(C(=O)NS(=O)(=O)C3(C)CC3)c(C(F)(F)F)c2)CC4)CCN1C (stereo partly drawn) [Example 104, 2-(3-azabicyclo[3.1.0]hexan-3-yl)-4-(8-((R)-3-(methoxymethyl)-4-methylpiperazin-1-yl)-7-methyl-5-oxo-1,3,4,5-tetrahydro-2H-chromeno[3,4-c]pyridine-3-carbonyl)-N-((1-methylcyclopropyl)sulfonyl)-6-(trifluoromethyl)benzamide]"
> 5000,100 to 1000,H (>9.0 to 30),–,"COC[C@H]1CN(c2cc(C)c3c4c(c(=O)oc3c2C)CN(C(=O)c2cc(N(C)C)c(C(=O)NS(=O)(=O)C3(C)CC3)cc2C(F)(F)F)CC4)CCN1C [Example 159, (R)-2-(dimethylamino)-4-(8-(3-(methoxymethyl)-4-methylpiperazin-1-yl)-7,10-dimethyl-5-oxo-1,3,4,5-tetrahydro-2H-chromeno[3,4-c]pyridine-3-carbonyl)-N-((1-methylcyclopropyl)sulfonyl)-5-(trifluoromethyl)benzamide]"
1 to 10,1 to 10,F (<3),–,"COC[C@H]1CN(c2cc(C)c3c4c(c(=O)oc3c2C)CN(C(=O)c2ccc(C(=O)NS(=O)(=O)C3(C)CC3)c(OC3C[C@@H]5C[C@@H]5C3)c2F)CC4)CCN1C (stereo partly drawn) [Example 37, 2-(((1R,3r,5S)-bicyclo[3.1.0]hexan-3-yl)oxy)-3-fluoro-4-(8-((R)-3-(methoxymethyl)-4-methylpiperazin-1-yl)-7,10-dimethyl-5-oxo-1,3,4,5-tetrahydro-2H-chromeno[3,4-c]pyridine-3-carbonyl)-N-((1-methylcyclopropyl)sulfonyl)benzamide]"
10 to 100,10 to 100,F (<3),–,"CCOc1c(C(=O)NS(=O)(=O)N2CC3CC3C2)ccc(C(=O)N2CCc3c(c(=O)oc4c(CC)c(N5CCN(C)[C@@H](COC)C5)ccc34)C2)c1F (stereo partly drawn) [Example 214, N-((3-azabicyclo[3.1.0]hexan-3-yl)sulfonyl)-2-ethoxy-4-(7-ethyl-8-((R)-3-(methoxymethyl)-4-methylpiperazin-1-yl)-5-oxo-1,3,4,5-tetrahydro-2H-chromeno[3,4-c]pyridine-3-carbonyl)-3-fluorobenzamide]"
10 to 100,1 to 10,G (^ 3 to 9.0),H* (>9.0 to 30),"COC[C@H]1CN(c2cc(C)c3c4c(c(=O)oc3c2C)CN(C(=O)c2ccc(C(=O)NS(=O)(=O)C3(C)CC3)c(N(C)C3CC3)c2)CC4)CCN1C [Example 83, (R)-2-(cyclopropyl(methyl)amino)-4-(8-(3-(methoxymethyl)-4-methylpiperazin-1-yl)-7,10-dimethyl-5-oxo-1,3,4,5-tetrahydro-2H-chromeno[3,4-c]pyridine-3-carbonyl)-N-((1-methylcyclopropyl)sulfonyl)benzamide]"
